Measured values from patent US20240409585A1, “MACROCYCLIC IMMUNOMODULATORS” (priority 2021, published 2024).
Bridge positions count the residues as written; N and C are the ends. Square brackets hold non-standard residues; d marks the D form. Peptide text beside a SMILES is read from it. * marks the point of attachment. Bip(4'-COOH) = N[C@@H](Cc1ccc(-c2ccc(C(=O)O)cc2)cc1)C(=O)O; Bip(4'-NHAc) = CC(=O)Nc1ccc(-c2ccc(C[C@H](N)C(=O)O)cc2)cc1; Phe(3,4,5-F3) = N[C@@H](Cc1cc(F)c(F)c(F)c1)C(=O)O; Phe(3-CF3) = N[C@@H](Cc1cccc(C(F)(F)F)c1)C(=O)O; Ala(morpholin-4-yl) = N[C@@H](CN1CCOCC1)C(=O)O; Phe(4-CONH2) = NC(=O)c1ccc(C[C@H](N)C(=O)O)cc1; Phe(4-COOH) = N[C@@H](Cc1ccc(C(=O)O)cc1)C(=O)O; Bip = N[C@@H](Cc1ccc(-c2ccccc2)cc1)C(=O)O; Abu(3R-NH2) = C[C@@H](N)[C@H](N)C(=O)O; Phe(3-Me) = Cc1cccc(C[C@H](N)C(=O)O)c1; Abu(3S-NH2) = C[C@H](N)[C@H](N)C(=O)O; Val(3-OH) = CC(C)(O)[C@H](N)C(=O)O; hPhe = N[C@@H](CCc1ccccc1)C(=O)O; Cha = N[C@@H](CC1CCCCC1)C(=O)O; Carboxymethyl = O=C(O)C*; NMeA = CN[C@@H](C)C(=O)O; Orn = NCCC[C@H](N)C(=O)O; Dab = NCC[C@H](N)C(=O)O; X42 = CS(=O)(=O)O*

Target: T1, Alexa fluor-647 labeled human PD-L1-Ig binding to Jurkat cell line over-expressing human PD-1 (Homo sapiens, UniProt Q15116)
T1 construct: expressed in transfected cells; host or cells: Jurkat
Assay: Jurkat-PD-1 Cell Binding High-Content Screening Assay (CBA): Method 3 (Alexa fluor-647 labeled PD-L1-Ig)
Conditions: Jurkat-PD-1 cells, Alexa fluor-647 labeled PD-L1-Ig 177 nM; head μM; read-out: CBA Method 3 μM
Procedure: Jurkat-PD-1 Cell Binding High-Content Screening Assay (CBA): Method 3
Alexa fluor-647 was covalently linked to the Ig epitope tag of human PD-L1-Ig and fluorescently labeled PD-L1-Ig was used for the binding studies with a Jurkat cell line over-expressing human PD-1. Briefly, 2.5×10^4 Jurkat-hPD-1 cells were seeded into 384 well plates in 20 μl of RPMI supplemented with 10% fetal calf serum. 12.5 nl of compound was added to cells followed by incubation at 37° C. for 2 hours. Then, 10 ul of Alexa fluor-647 labeled PD-L1-Ig (177 nM final), diluted in RPMI supplemented with 10% fetal calf serum was added to the cells and incubated for 1 hour. Cells were then fixed with 4% paraformaldehyde containing 10 μg/ml Hoechst 33342 and then washed 3× in 100 ul PBS and 100 ul of PBS was added in the final step. Data was collected using the Operetta High Content Imager and the data was analyzed using the columbus software.

T1 sequence (Q15116 25-288): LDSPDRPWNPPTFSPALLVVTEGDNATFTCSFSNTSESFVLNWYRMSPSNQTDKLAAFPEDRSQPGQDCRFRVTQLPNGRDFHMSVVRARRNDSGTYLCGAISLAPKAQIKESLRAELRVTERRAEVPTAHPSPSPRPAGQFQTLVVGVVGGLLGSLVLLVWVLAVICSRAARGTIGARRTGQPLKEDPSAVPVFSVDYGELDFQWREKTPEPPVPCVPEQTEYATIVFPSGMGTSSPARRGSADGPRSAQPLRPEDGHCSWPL

Row | Compound | IC50 [µM]
1 | CC(=O)Nc1ccc(-c2ccc(C[C@@H]3NC(=O)[C@H](Cc4cccc(C(F)(F)F)c4)NC(=O)[C@H](CC(=O)OS(C)(=O)=O)NC(=O)[C@H](Cc4ccc(C(=O)O)cc4)NC(=O)[C@H]([C@H](C)N)NC(=O)CSC[C@@H](C(=O)N[C@@H](CCN)C(N)=O)NC(=O)[C@H](CC(N)=O)NC(=O)[C@H](C(C)C)NC(=O)[C@H](CC4CCCCC4)NC(=O)[C@H](CCN)NC(=O)[C@@H](CC(C)C)NC(=O)[C@H](C)N(C)C(=O)[C@H](Cc4ccc(C(N)=O)cc4)NC(=O)[C@H](Cc4ccc(-c5ccccc5)cc4)NC3=O)cc2)cc1 [Example 5112] ({CH2CO}-[Abu(3S-NH2)][Phe(4-COOH)]D(X42)[Phe(3-CF3)][Bip(4'-NHAc)][Bip][Phe(4-CONH2)][NMeA][dL][Dab][Cha]VNC[Dab]-NH2; thioether N-14) | 0.1
2 | CC(=O)Nc1ccc(-c2ccc(C[C@@H]3NC(=O)[C@H](Cc4cccc(C(F)(F)F)c4)NC(=O)[C@H](CC(=O)O)NC(=O)[C@H](Cc4ccc(C(=O)O)cc4)NC(=O)[C@H](CC(C)C)NC(=O)CSC[C@@H](C(=O)N[C@@H](CCN)C(N)=O)NC(=O)[C@H](CCC(=O)O)NC(=O)[C@H](C(C)C)NC(=O)[C@H](CC4CCCCC4)NC(=O)[C@H](CCN)NC(=O)[C@@H](CC(C)C)NC(=O)[C@H](C)N(C)C(=O)[C@H](CCCN)NC(=O)[C@H](Cc4ccc(-c5ccccc5)cc4)NC3=O)cc2)cc1 [Example 5094] ({CH2CO}-L[Phe(4-COOH)]D[Phe(3-CF3)][Bip(4'-NHAc)][Bip][Orn][NMeA][dL][Dab][Cha]VEC[Dab]-NH2; thioether N-14) | 0.03
3 | Cc1cccc(C[C@@H]2NC(=O)[C@H](CC(=O)O)NC(=O)[C@H](Cc3ccc(OCC(=O)O)cc3)NC(=O)[C@H](Cc3cc(F)c(F)c(F)c3)NC(=O)CSC[C@@H](C(=O)N[C@@H](CCN)C(N)=O)NC(=O)[C@H](CCCN)NC(=O)[C@H](C(C)C)NC(=O)[C@H](CC3CCCCC3)NC(=O)[C@H](CCN)NC(=O)[C@@H](CC(C)C)NC(=O)[C@H](C)N(C)C(=O)[C@H](CCC(N)=O)NC(=O)[C@H](Cc3ccc(-c4ccccc4)cc3)NC(=O)[C@H](Cc3ccc(C(=O)O)cc3)NC2=O)c1 [Example 5287] ({CH2CO}-[Phe(3,4,5-F3)]Y(Carboxymethyl)D[Phe(3-Me)][Phe(4-COOH)][Bip]Q[NMeA][dL][Dab][Cha]V[Orn]C[Dab]-NH2; thioether N-14) | 0.27
4 | CC(C)C[C@H]1NC(=O)[C@H](C)N(C)C(=O)[C@H](CCC(N)=O)NC(=O)[C@H](Cc2ccc(-c3ccccc3)cc2)NC(=O)[C@H](CCc2ccccc2)NC(=O)[C@H](Cc2cccc(C(F)(F)F)c2)NC(=O)[C@H](CC(=O)N[C@@H](CC(=O)O)C(=O)O)NC(=O)[C@H](Cc2ccc(OCC(=O)O)cc2)NC(=O)[C@H](CN2CCOCC2)NC(=O)CSC[C@@H](C(=O)N[C@@H](CCN)C(N)=O)NC(=O)[C@H](CCCN)NC(=O)[C@H](C(C)C)NC(=O)[C@H](CC2CCCCC2)NC(=O)[C@H](CCN)NC1=O [Example 5294] ({CH2CO}-[Ala(morpholin-4-yl)]Y(Carboxymethyl)D(Asp)[Phe(3-CF3)][hPhe][Bip]Q[NMeA][dL][Dab][Cha]V[Orn]C[Dab]-NH2; thioether N-14) | 0.04
5 | COc1ccc(C[C@@H]2NC(=O)[C@H](CN3CCOCC3)NC(=O)CSC[C@@H](C(=O)N[C@@H](CCN)C(N)=O)NC(=O)[C@H](CCCN)NC(=O)[C@H](C(C)C)NC(=O)[C@H](CC3CCCCC3)NC(=O)[C@H](CCN)NC(=O)[C@@H](CC(C)C)NC(=O)[C@H](C)N(C)C(=O)[C@H](CCC(N)=O)NC(=O)[C@H](Cc3ccc(-c4ccccc4)cc3)NC(=O)[C@H](Cc3ccc(OCC(=O)O)cc3)NC(=O)[C@H](Cc3cccc(C(F)(F)F)c3)NC(=O)[C@H](CC(=O)O)NC2=O)cc1 [Example 5263] ({CH2CO}-[Ala(morpholin-4-yl)]Y(Me)D[Phe(3-CF3)]Y(Carboxymethyl)[Bip]Q[NMeA][dL][Dab][Cha]V[Orn]C[Dab]-NH2; thioether N-14) | 0.18
6 | CC(=O)Nc1ccc(-c2ccc(C[C@@H]3NC(=O)[C@H](Cc4cccc(C)c4)NC(=O)[C@H](CC(=O)O)NC(=O)[C@H](Cc4ccc(-c5ccc(C(=O)O)cc5)cc4)NC(=O)[C@H](CN4CCOCC4)NC(=O)CSC[C@@H](C(=O)N[C@@H](CCN)C(N)=O)NC(=O)[C@H](CO)NC(=O)[C@H](C(C)(C)O)NC(=O)[C@H](CC4CCCCC4)NC(=O)[C@H](CC(N)=O)NC(=O)[C@@H](CC(C)C)NC(=O)[C@H](C)N(C)C(=O)[C@H](Cc4ccc(OCC(=O)O)cc4)NC(=O)[C@H](Cc4ccc(-c5ccccc5)cc4)NC3=O)cc2)cc1 [Example 5129] ({CH2CO}-[Ala(morpholin-4-yl)][Bip(4'-COOH)]D[Phe(3-Me)][Bip(4'-NHAc)][Bip]Y(Carboxymethyl)[NMeA][dL]N[Cha][Val(3-OH)]SC[Dab]-NH2; thioether N-14) | 0.03

Same assay, conditions: Jurkat-PD-1 cells, Alexa fluor-647 labeled PD-L1-Ig 177 nM; nM; read-out: CBA Method 3

Row | Compound | IC50 [µM]
7 | CC(C)C[C@H]1NC(=O)[C@H](C)N(C)C(=O)[C@H](CCC(N)=O)NC(=O)[C@H](Cc2ccc(-c3ccccc3)cc2)NC(=O)[C@H](CCc2ccccc2)NC(=O)[C@H](Cc2cccc(C(F)(F)F)c2)NC(=O)[C@H](CC(=O)O)NC(=O)[C@H](Cc2ccc(OCC(=O)O)cc2)NC(=O)[C@H]([C@@H](C)N)NC(=O)CSC[C@@H](C(=O)N[C@@H](CCN)C(N)=O)NC(=O)[C@H](CCC(=O)O)NC(=O)[C@H](C(C)C)NC(=O)[C@H](CC2CCCCC2)NC(=O)[C@H](CCN)NC1=O [Example 5215] ({CH2CO}-[Abu(3R-NH2)]Y(Carboxymethyl)D[Phe(3-CF3)][hPhe][Bip]Q[NMeA][dL][Dab][Cha]VEC[Dab]-NH2; thioether N-14) | 0.001
8 | CC(C)C[C@H]1NC(=O)[C@H](C)N(C)C(=O)[C@H](CCCN)NC(=O)[C@H](Cc2ccc(-c3ccccc3)cc2)NC(=O)[C@H](Cc2ccc(-c3ccc(C(=O)O)cc3)cc2)NC(=O)[C@H](Cc2cccc(C(F)(F)F)c2)NC(=O)[C@H](CC(=O)O)NC(=O)[C@H](Cc2ccc(-c3ccc(C(=O)O)cc3)cc2)NC(=O)[C@H](Cc2ccc(OCC(=O)O)cc2)NC(=O)CSC[C@@H](C(=O)N[C@@H](CCN)C(N)=O)NC(=O)[C@H](CCC(N)=O)NC(=O)[C@H](C(C)C)NC(=O)[C@H](CC2CCCCC2)NC(=O)[C@H](CCN)NC1=O [Example 5120] ({CH2CO}-Y(Carboxymethyl)[Bip(4'-COOH)]D[Phe(3-CF3)][Bip(4'-COOH)][Bip][Orn][NMeA][dL][Dab][Cha]VQC[Dab]-NH2; thioether N-14) | 0.0056
9 | CC(C)C[C@H]1NC(=O)[C@H](C)N(C)C(=O)[C@H](Cc2ccc(C(=O)O)cc2)NC(=O)[C@H](Cc2ccc(-c3ccccc3)cc2)NC(=O)[C@H](Cc2ccc(C(N)=O)cc2)NC(=O)[C@H](Cc2cccc(C(F)(F)F)c2)NC(=O)[C@H](CC(=O)O)NC(=O)[C@H](Cc2ccc(C(=O)O)cc2)NC(=O)[C@H]([C@H](C)N)NC(=O)CSC[C@@H](C(=O)N[C@@H](CCN)C(N)=O)NC(=O)[C@H](CC(N)=O)NC(=O)[C@H](C(C)C)NC(=O)[C@H](CC2CCCCC2)NC(=O)[C@H](CCN)NC1=O [Example 5101] ({CH2CO}-[Abu(3S-NH2)][Phe(4-COOH)]D[Phe(3-CF3)][Phe(4-CONH2)][Bip][Phe(4-COOH)][NMeA][dL][Dab][Cha]VNC[Dab]-NH2; thioether N-14) | 0.0037
